# Biological target: Non-receptor tyrosine-protein kinase TYK2 (Homo sapiens, UniProt P29597)
# Sequence (P29597 whole entry): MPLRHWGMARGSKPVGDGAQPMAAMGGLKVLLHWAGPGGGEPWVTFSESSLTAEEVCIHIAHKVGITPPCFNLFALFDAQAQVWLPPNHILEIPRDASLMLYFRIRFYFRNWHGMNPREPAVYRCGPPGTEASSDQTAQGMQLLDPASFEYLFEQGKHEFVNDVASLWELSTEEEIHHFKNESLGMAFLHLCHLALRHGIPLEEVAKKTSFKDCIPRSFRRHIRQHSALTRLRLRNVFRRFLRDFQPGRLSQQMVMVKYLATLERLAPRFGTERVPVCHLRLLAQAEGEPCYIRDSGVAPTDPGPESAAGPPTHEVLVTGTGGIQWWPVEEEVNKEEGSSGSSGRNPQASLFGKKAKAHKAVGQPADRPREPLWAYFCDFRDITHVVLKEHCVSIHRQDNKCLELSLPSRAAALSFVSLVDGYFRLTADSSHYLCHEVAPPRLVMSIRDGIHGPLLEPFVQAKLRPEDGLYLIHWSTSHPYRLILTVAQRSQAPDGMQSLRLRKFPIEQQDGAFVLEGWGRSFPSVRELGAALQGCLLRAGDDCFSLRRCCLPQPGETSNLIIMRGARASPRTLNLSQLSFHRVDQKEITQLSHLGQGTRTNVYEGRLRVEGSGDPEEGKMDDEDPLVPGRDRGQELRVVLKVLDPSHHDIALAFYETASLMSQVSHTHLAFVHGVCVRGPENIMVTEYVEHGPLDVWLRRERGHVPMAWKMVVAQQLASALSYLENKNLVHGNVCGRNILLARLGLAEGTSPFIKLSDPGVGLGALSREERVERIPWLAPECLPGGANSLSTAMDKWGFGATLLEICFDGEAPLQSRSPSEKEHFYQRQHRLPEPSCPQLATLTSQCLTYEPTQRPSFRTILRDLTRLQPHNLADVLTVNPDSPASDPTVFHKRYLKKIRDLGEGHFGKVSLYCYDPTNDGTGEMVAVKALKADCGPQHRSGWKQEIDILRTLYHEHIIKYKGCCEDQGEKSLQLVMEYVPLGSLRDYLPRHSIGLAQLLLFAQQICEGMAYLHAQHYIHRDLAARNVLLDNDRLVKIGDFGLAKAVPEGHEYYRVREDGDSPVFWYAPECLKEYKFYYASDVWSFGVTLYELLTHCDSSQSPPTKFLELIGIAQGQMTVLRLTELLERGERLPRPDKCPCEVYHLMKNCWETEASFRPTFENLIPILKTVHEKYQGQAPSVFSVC
# Description: Inhibition of TYK2 (unknown origin) using GFP-STAT1 as substrate incubated for 1 hrs by TR-FRET assay
row,SMILES,IC50 [µM]
1,COc1cccc(CN2CCC(Nc3c(-c4cn[nH]c4)cnc4[nH]ccc34)CC2)c1,> 10
2,N#Cc1ccc(CN2CCC(Nc3c(-c4cn[nH]c4)cnc4[nH]ccc34)CC2)cc1,> 10
3,Clc1ccc(CN2CCC(Nc3c(-c4cc[nH]c4)cnc4[nH]ccc34)CC2)cc1,> 10
4,N#Cc1ccccc1CN1CCC(Nc2c(-c3cc[nH]c3)cnc3[nH]ccc23)CC1,4.15
5,Clc1ccccc1CN1CCC(Nc2c(-c3cc[nH]n3)cnc3[nH]ccc23)CC1,> 10
6,Clc1cccc(CN2CCC(Nc3c(-c4cc[nH]c4)cnc4[nH]ccc34)CC2)c1,> 10
7,Clc1ccccc1CN1CCC(Nc2c(-c3cn[nH]c3)cnc3[nH]ccc23)CC1,> 10
8,N#Cc1ccc(CN2CCC(Nc3c(-c4cc[nH]c4)cnc4[nH]ccc34)CC2)cc1,> 10
9,N#Cc1cccc(CN2CCC(Nc3c(-c4cc[nH]c4)cnc4[nH]ccc34)CC2)c1,> 10

# Second part, the compound after the results:
row,IC50 [µM],SMILES
1,> 10,N#Cc1cccc(CN2CCC(Nc3c(-c4cn[nH]c4)cnc4[nH]ccc34)CC2)c1
2,> 10,COc1cccc(CN2CCC(Nc3c(-c4cc[nH]n4)cnc4[nH]ccc34)CC2)c1
3,0.504,COc1cccc(CN2CCC(Nc3c(-c4cc[nH]c4)cnc4[nH]ccc34)CC2)c1
4,> 10,Clc1cccc(CN2CCC(Nc3c(-c4cn[nH]c4)cnc4[nH]ccc34)CC2)c1
5,> 10,Clc1ccc(CN2CCC(Nc3c(-c4cc[nH]n4)cnc4[nH]ccc34)CC2)cc1
6,> 10,Clc1ccccc1CN1CCC(Nc2c(-c3cc[nH]c3)cnc3[nH]ccc23)CC1
7,0.0041,N#Cc1ccccc1CN1CCC(Nc2c(-c3cn[nH]c3)cnc3[nH]ccc23)CC1
8,> 10,Clc1cccc(CN2CCC(Nc3c(-c4cc[nH]n4)cnc4[nH]ccc34)CC2)c1
9,> 10,N#Cc1cccc(CN2CCC(Nc3c(-c4cc[nH]n4)cnc4[nH]ccc34)CC2)c1
10,0.0013,N#Cc1ccccc1CN1CCC(Nc2c(-c3cc[nH]n3)cnc3[nH]ccc23)CC1
11,> 10,N#Cc1ccc(CN2CCC(Nc3c(-c4cc[nH]n4)cnc4[nH]ccc34)CC2)cc1
12,> 10,Clc1ccc(CN2CCC(Nc3c(-c4cn[nH]c4)cnc4[nH]ccc34)CC2)cc1
